According to patent US20030124652A1, “Methods of producing high mannose glycoproteins in complex carbohydrate deficient cells” (NOVAZYME PHARMACEUTICALS, INC., priority 2001, published 2003):

Tested on: CHO cell line (GAA LEC clone R3.3) expressing rh-GAA
Experiment: Phosphorylation efficiency of rh-GAA from cultures containing mannosidase inhibitors ([32P] incorporation by GlcNAc phosphotransferase)
Format: cell-based, Chinese Hamster
Settings: increasing amounts of inhibitor alone vs no mannosidase inhibitors (FIG. 1)
Description: To determine whether mannosidase inhibitors can increase phosphorylation efficiency of recombinant human acid alpha glucosidase (rh-GAA), a CHO cell line (GAA LEC clone R3.3) expressing rh-GAA was grown in various conditions that contained different amounts of the following mannosidase the inhibitors: Kifunensin; Deoxymannojirimycin (DMJ); or combinations of both inhibitors. Conditioned media from each inhibitor condition containing 6 μg of GAA (based on GAA activity assay) was then incubated with purified bovine GlcNAc phosphotransferase (Pt'ase) and [^32P]UDP-GlcNAc. Subsequently, each phosphorylation reaction was loaded onto a concanavalin A-sepharose column to capture glycoproteins, e.g., rh-GAA. The concanavalin A-sepharose was washed and the resin was counted in a liquid scintillation counter to measure the ^32P incorporation, i.e., the extent of phosphorylation on rh-GAA. The results are summarized in Table 1 below and FIGS. 1 and 2.

In the case of OC[C@H]1NC[C@@H](O)[C@@H](O)[C@@H]1O [DMJ only, deoxymannojirimycin], the “effect on the phosphorylation reaction of rh-GAA (in words)” value is reported as “greatly enhance the phosphorylation reaction”.

In the case of O=C1N[C@@H]2[C@@H](O)[C@@H](O)[C@H](O)[C@@H](CO)N2C1=O [Kifunensin only, kifunensine], the “effect on the phosphorylation reaction of rh-GAA (in words)” value is reported as “greatly enhance the phosphorylation reaction”.
